Among the data in PubChem BioAssay AID1259407 (Chemical Carcinogenesis Research Information System (CCRIS), 2018) are mutagenic call values, retold here.

This data set has as its system CCRIS mutagenicity, Ames/micronucleus/aberration tests. The experiment in a line: CCRIS mutagenicity studies.
Where [1] appears, read: Test System: AMES SALMONELLA TYPHIMURIUM, Strain/Indicator: TA98, Metabolic Activation: NONE, Method: PREINCUBATION
The mark [2] stands for this setting: Test System: AMES SALMONELLA TYPHIMURIUM, Strain/Indicator: TA100, Metabolic Activation: NONE, Method: PREINCUBATION
The mark [3] stands for this setting: Test System: AMES SALMONELLA TYPHIMURIUM, Strain/Indicator: TA100, Metabolic Activation: HAMSTER, LIVER, S-9, AROCLOR 1254 (10%), Method: PREINCUBATION
Setting [4] is: Test System: AMES SALMONELLA TYPHIMURIUM, Strain/Indicator: TA100, Metabolic Activation: RAT, LIVER, S-9, AROCLOR 1254 (10%), Method: PREINCUBATION
Setting [5] is: Test System: AMES SALMONELLA TYPHIMURIUM, Strain/Indicator: TA1535, Metabolic Activation: HAMSTER, LIVER, S-9, AROCLOR 1254 (10%), Method: PREINCUBATION
Setting [6] is: Test System: AMES SALMONELLA TYPHIMURIUM, Strain/Indicator: TA1535, Metabolic Activation: NONE, Method: PREINCUBATION
[7] abbreviates: Test System: AMES SALMONELLA TYPHIMURIUM, Strain/Indicator: TA1535, Metabolic Activation: RAT, LIVER, S-9, AROCLOR 1254 (10%), Method: PREINCUBATION
The mark [8] stands for this setting: Test System: AMES SALMONELLA TYPHIMURIUM, Strain/Indicator: TA1537, Metabolic Activation: NONE, Method: PREINCUBATION
The mark [9] stands for this setting: Test System: AMES SALMONELLA TYPHIMURIUM, Strain/Indicator: TA100, Metabolic Activation: NONE, Method: STANDARD PLATE.

Activity calls are given as the source filed them. How the calls were made is not given here.

On to `COc1ccc(N)c(C)c1`, for which the mutagenic call runs as follows: (Test System: AMES SALMONELLA TYPHIMURIUM, Strain/Indicator: TA98, Metabolic Activation: HAMSTER, LIVER, S-9, AROCLOR 1254 (30%), Method: PREINCUBATION) “inactive; negative”; under setting [1], “inactive; negative”; (Test System: AMES SALMONELLA TYPHIMURIUM, Strain/Indicator: TA98, Metabolic Activation: RAT, LIVER, S-9, AROCLOR 1254 (30%), Method: PREINCUBATION) “inactive; negative”; (Test System: AMES SALMONELLA TYPHIMURIUM, Strain/Indicator: TA100, Metabolic Activation: HAMSTER, LIVER, S-9, AROCLOR 1254 (30%), Method: PREINCUBATION) “active; positive”; under setting [2], “inactive; negative”; (Test System: AMES SALMONELLA TYPHIMURIUM, Strain/Indicator: TA100, Metabolic Activation: RAT, LIVER, S-9, AROCLOR 1254 (30%), Method: PREINCUBATION) “inactive; negative”. Besides, the mutagenic call reads like this: (Test System: E. COLI, Strain/Indicator: WP2 UVRA, Metabolic Activation: HAMSTER, LIVER, S-9, AROCLOR 1254, Method: STANDARD PLATE) “inactive; negative”; (Test System: E. COLI, Strain/Indicator: WP2 UVRA, Metabolic Activation: HAMSTER, LIVER, S-9, Method: STANDARD PLATE) “inactive; negative”; (Test System: E. COLI, Strain/Indicator: WP2 UVRA, Metabolic Activation: MOUSE, LIVER, S-9, AROCLOR 1254, Method: STANDARD PLATE) “inactive; negative”; (Test System: E. COLI, Strain/Indicator: WP2 UVRA, Metabolic Activation: MOUSE, LIVER, S-9, Method: STANDARD PLATE) “inactive; negative”; (Test System: E. COLI, Strain/Indicator: WP2 UVRA, Metabolic Activation: NONE, Method: STANDARD PLATE) “inactive; negative”; (Test System: E. COLI, Strain/Indicator: WP2 UVRA, Metabolic Activation: RAT, LIVER, S-9, AROCLOR 1254, Method: STANDARD PLATE) “inactive; negative”. The mutagenic call (Test System: E. COLI, Strain/Indicator: WP2 UVRA, Metabolic Activation: RAT, LIVER, S-9, Method: STANDARD PLATE) is “inactive; negative”.
Take `CN(C)CCN(C)C`: the mutagenic call reads like this: (Test System: AMES SALMONELLA TYPHIMURIUM, Strain/Indicator: TA98, Metabolic Activation: HAMSTER, LIVER, S-9, AROCLOR 1254 (10%), Method: PREINCUBATION) “inactive; negative”; under setting [1], “inactive; negative”; (Test System: AMES SALMONELLA TYPHIMURIUM, Strain/Indicator: TA98, Metabolic Activation: RAT, LIVER, S-9, AROCLOR 1254 (10%), Method: PREINCUBATION) “inactive; negative”; under setting [3], “inactive; negative”; under setting [2], “inactive; negative”; under setting [4], “inactive; negative”. Also, the mutagenic call reads like this: under setting [5], “inactive; negative”; under setting [6], “inactive; negative”; under setting [7], “inactive; negative”; (Test System: AMES SALMONELLA TYPHIMURIUM, Strain/Indicator: TA1537, Metabolic Activation: HAMSTER, LIVER, S-9, AROCLOR 1254 (10%), Method: PREINCUBATION) “inactive; negative”; under setting [8], “inactive; negative”; (Test System: AMES SALMONELLA TYPHIMURIUM, Strain/Indicator: TA1537, Metabolic Activation: RAT, LIVER, S-9, AROCLOR 1254 (10%), Method: PREINCUBATION) “inactive; negative”.
With `COc1cc2c3c(c1O)-c1cc4c(cc1C[C@@H]3N(C)CC2)OCO4`, the mutagenic call (Test System: AMES SALMONELLA TYPHIMURIUM, Strain/Indicator: TA100, Metabolic Activation: RAT, LIVER, S-9, PHENOBARBITAL AND BETA-NAPHTHOFLAVONE, Method: PREINCUBATION) is “inactive; negative”.
On to `CN(c1nccc(=O)[nH]1)C1CCN(c2nc3ccccc3n2Cc2ccc(F)cc2)CC1`, for which the mutagenic call by setting is: under setting [1], “inactive; negative”; (Test System: AMES SALMONELLA TYPHIMURIUM, Strain/Indicator: TA98, Metabolic Activation: RAT LIVER S-9, PHENOBARBITAL AND 5,6-BENZOFLAVONE, Method: PREINCUBATION) “inactive; negative”; under setting [2], “inactive; negative”; (Test System: AMES SALMONELLA TYPHIMURIUM, Strain/Indicator: TA100, Metabolic Activation: RAT LIVER S-9, PHENOBARBITAL AND 5,6-BENZOFLAVONE, Method: PREINCUBATION) “inactive; negative”; under setting [6], “inactive; negative”; (Test System: AMES SALMONELLA TYPHIMURIUM, Strain/Indicator: TA1535, Metabolic Activation: RAT LIVER S-9, PHENOBARBITAL AND 5,6-BENZOFLAVONE, Method: PREINCUBATION) “inactive; negative”. Also, the mutagenic call under setting [8] is “inactive; negative”; the mutagenic call (Test System: AMES SALMONELLA TYPHIMURIUM, Strain/Indicator: TA1537, Metabolic Activation: RAT LIVER S-9, PHENOBARBITAL AND 5,6-BENZOFLAVONE, Method: PREINCUBATION) was “inactive; negative”; the mutagenic call (Test System: E.COLI, Strain/Indicator: WP2 UVRA, Metabolic Activation: NONE, Method: PREINCUBATION) is “inactive; negative”; the mutagenic call (Test System: E.COLI, Strain/Indicator: WP2 UVRA, Metabolic Activation: RAT LIVER S-9, PHENOBARBITAL AND 5,6-BENZOFLAVONE, Method: PREINCUBATION) is “inactive; negative”.
Regarding `ClC(Cl)(Cl)C1CO1` (stereo unspecified), the mutagenic call reads like this: under setting [3], “active; positive”; under setting [2], “active; positive”; under setting [9], “active; positive”; under setting [4], “active; positive”; (Test System: AMES SALMONELLA TYPHIMURIUM, Strain/Indicator: TA104, Metabolic Activation: NONE, Method: STANDARD PLATE) “active; positive”; under setting [5], “inactive; negative”. The mutagenic call is “active; positive” under setting [6]; “inactive; negative” under setting [7]; “active; positive” (Test System: AMES SALMONELLA TYPHIMURIUM, Strain/Indicator: TA4001, Metabolic Activation: NONE, Method: STANDARD PLATE); “active; positive” (Test System: AMES SALMONELLA TYPHIMURIUM, Strain/Indicator: TA4006, Metabolic Activation: NONE, Method: STANDARD PLATE).
Turning to `ClC(Cl)=C(Cl)/C(Cl)=C(\Cl)SCc1ccccc1`, the mutagenic call runs as follows: under setting [2], “inactive; negative”; (Test System: AMES SALMONELLA TYPHIMURIUM, Strain/Indicator: TA100, Metabolic Activation: RAT, LIVER, S-9, AROCLOR 1254, Method: PREINCUBATION) “active; positive”.
Consider `OCc1ccc2c(c1)-c1cccc3cccc-2c13`, for which the mutagenic call (Test System: AMES SALMONELLA TYPHIMURIUM, Strain/Indicator: TA98, Metabolic Activation: NONE, Method: STANDARD PLATE) is “inactive; negative” and the mutagenic call under setting [9] is “active; positive”.
For `COc1ccc(/C=C/c2cc(OC)cc(=O)o2)cc1`, the mutagenic call (Test System: Mouse lymphoma cells, Strain/Indicator: L5178Y ( tk+/tk-), Metabolic Activation: Human, Liver, S-9, Method: Suspension/plate) was “inactive; negative”.
